For one assay, the system named is Apple. The assay is described as follows: Whole plant screen for plant growth regulator activity, apple (AP). The class given is in vivo, Apple (Red Delicious). The following applies: 4000 ppm (4 kg/ha), visual score after 2-6 weeks. As for the experimental part: (§1) Compounds 1 to 3 in Table 1 were tested for plant growth regulator activity against five species for various growth effects relevant to plant growth regulation.
(§2) The plant species used in this screen are presented in Table II with the leaf stage at which they were sprayed. Each chemical was applied at 4000 ppm (4 kg/ha in a 1000 l/ha field volume) using a tracksprayer and a SS8004E (Teejet) nozzle.
(§3) After spray the plants were grown in a glasshouse with 25° C. day/22° C. night temperatures and supplementary lighting was supplied when necessary (from mercury vapour lamps), to provide a 16 hour photoperiod. The exception to this were the temperate cereals, wheat and barley which were grown in 16° C. day/13° C. night temperatures.
(§4) After 2-6 weeks in the glasshouse, depending on the time of year, the plants were visually assessed for morphological characteristics. Formulation blanks were used as controls to assess the plants.
(§5) Additional compounds in Table I were tested for plant growth regulator activity using the method of Example 60 except that Tomato was included in the test as an additional species. Tomato, Ailsa Craig, was grown in a single 3 inch pot in peat and treated at the 2 to 21/2 leaves growth stage. The results were presented in Table IV in which Tomato is indicated by the code TO and the Key is otherwise as for Table III.

The next assay concerns Tomato. Nature of the assay: Whole plant screen for plant growth regulator activity, tomato (TO). The class given is in vivo, Tomato (Ailsa Craig). The following applies: 4000 ppm (4 kg/ha), visual score after 2-6 weeks. As for the experimental part:
as §2, §3, §4, §5
An astrisk (*) after a score under "T" (tillering) indicated a decrease in tillering.

Another assay has as its system Barley. The assay is described as follows: Whole plant screen for plant growth regulator activity, barley (BR). Type of assay: in vivo, Barley (Atem). As to conditions: BR, 4000 ppm (4 kg/ha), visual score after 2-6 weeks; for T = Tillering or side shooting: * = decrease in tillering. As for the experimental part: as §1, §2, §3, §4, §5
The test system of a further assay is Rice. Nature of the assay: Whole plant screen for plant growth regulator activity, rice (RC). Type of assay: in vivo, Rice (Ishikari). As to conditions: 4000 ppm (4 kg/ha), visual score after 2-6 weeks; for T = Tillering or side shooting: * = decrease in tillering. The method, then:
as §1, §2, §3, §4, §5

Another assay concerns Wheat. Nature of the assay: Whole plant screen for plant growth regulator activity, wheat (WW). The class given is in vivo, Wheat (Timmo). The following applies: WW, 4000 ppm (4 kg/ha), visual score after 2-6 weeks. The method, then: as §1, §2, §3, §4, §5

On to `CC(C)C(O)(CCC(C)(C)C)c1cncnc1` (stereo not shown) [Compound 20], for which the “G = Greening effect” value with Apple was 2 (31-60%); with Tomato, 2 (31-60%); in the assay with Barley it was 1 (10-30%); in the assay on Rice, 2 (31-60%); in the assay with Wheat, 2 (31-60%). Moreover, the “I = Interligular or internodal length reduction” value is 3 (61-100%) with Apple; 3 (61-100%) in the assay on Tomato; 2 (31-60%) with Barley; 3 (61-100%) in the assay with Rice; 3 (61-100%) in the assay with Wheat. Further, the “R = Retardation” value with Apple is recorded as 3 (61-100%); with Tomato, 3 (61-100%); in the assay with Barley, 2 (31-60%); in the assay on Rice, 2 (31-60%); with Wheat it was 3 (61-100%). Also, the “T = Tillering or side shooting” value with Rice is recorded as 3 (61-100%).

With `CCC(C)CCCC(O)(c1cncnc1)C(C)C` (stereo not shown) [Compound 21], the “I = Interligular or internodal length reduction” value in the assay with Apple is reported as 2 (31-60%); in the assay with Tomato, 2 (31-60%); with Barley, 3 (61-100%); in the assay with Rice it was 2 (31-60%); with Wheat it was 2 (31-60%). Besides, the “R = Retardation” value in the assay with Apple, in the assay with Tomato, in the assay with Barley, with Rice and with Wheat was 2 (31-60%) throughout. Also, the “G = Greening effect” value is given as 2 (31-60%) in the assay with Tomato, 1 (10-30%) in the assay on Barley, 1 (10-30%) with Rice and 2 (31-60%) in the assay with Wheat. Besides, the “T = Tillering or side shooting” value in the assay with Barley is 3 (61-100%); with Rice, 2 (31-60%).

Turning to `CCCCCCC(O)(c1cncnc1)C(C)(C)C` (stereo not shown) [Compound 30], the “I = Interligular or internodal length reduction” value in the assay on Apple is given as 2 (31-60%); in the assay with Tomato, 2 (31-60%); in the assay with Barley it was 3 (61-100%); in the assay with Rice it was 3 (61-100%); with Wheat, 3 (61-100%). The “R = Retardation” value was 2 (31-60%) with Apple; 2 (31-60%) with Tomato; 2 (31-60%) in the assay with Barley; 2 (31-60%) with Rice; 3 (61-100%) in the assay with Wheat. In addition, the “G = Greening effect” value in the assay on Tomato is 2 (31-60%); in the assay on Barley, 1 (10-30%); in the assay with Rice it was 2 (31-60%); with Wheat, 2 (31-60%). The “T = Tillering or side shooting” value in the assay with Barley is 2 (31-60%); in the assay with Rice, 3 (61-100%); in the assay on Wheat (* = decrease in tillering), 3 (61-100%).

(Values after US4875922A, “Pyrimidine derivatives” (Imperial Chemical Industries PLC, priority 1986, dated 1989).)
